From EP1338280A1, “COMBINATION OF AMINES AND VANADIUM (IV)/(V) COMPOUNDS FOR THE TREATMENT AND/OR PREVENTION OF DIABETES MELLITUS” (priority 2000, dated 2002)

Legend:
[1] = system: GLUT4; assay: GLUT4 translocation: Western blot of GLUT4 in plasma membrane and low density microsome fractions of rat adipocytes; type: cell-based; set-up: abundance of GLUT4 in plasma membranes: dose or concentration left out as unconfirmed; settings: for abundance of GLUT4 in plasma membranes: 45 minutes incubation, benzylamine or orthovanadate alone
Procedure: To verify whether the stimulation of glucose transport in rat adipocytes may be explained by a translocation of the insulin-sensitive glucose transporters from an internal site to the plasma membrane, as it is known for insulin, the amount of GLUT4 protein was determined in plasma membrane (PM) and low density microsome (LDM) fractions. […] These increases in GLUT4 content occurred without any significant change in the content of β1-integrin, a constitutive PM protein. Changes in the GLUT4 content of LDM mirrored, to a lesser extent, those reported in the PM (basal LDM content was decreased by 29 % and 12 % with insulin and tyramine plus orthovanadate respectively).
This study was carried out in order to determine whether the stimulation of glucose transport induced by the combination of benzylamine and orthovanadate was a consequence of alterations in the abundance of GLUT4 glucose carriers in the cell surface from adipose cells. Thus, isolated rat adipocytes were incubated in the absence or in the presence of insulin, benzylamine ([…]), orthovanadate ([…]) or the combination of benzylamine and orthovanadate, and 45 minutes later cells were homogenized and subjected to subcellular membrane fractionation. […] However, the incubation of cells with benzylamine and orthovanadate caused a 2.3-fold increase in the presence of GLUT4 in plasma membrane fractions. The effects of insulin or the combination benzylamine and orthovanadate on GLUT4 abundance in plasma membranes were specific and the plasma membrane marker β1-integrin remained unaltered after incubation with these agents. The recruitment of GLUT4 to the plasma membranes detected by insulin or the combination of benzylamine and orthovanadate was concomitant with a reduction of GLUT4 abundance in light microsomes. This was consistent with the view that benzylamine and orthovanadate translocate GLUT4 to the plasma membrane in isolated rat adipocytes.

[2] = system: streptozotocin-induced diabetic rats; assay: Chronic administration in streptozotocin-induced diabetic rats; type: in vivo; settings: for food and water consumption / weight of epididymal adipose tissue (adiposity): chronic treatment of diabetic rats
Procedure: (§1) Based on the finding of potent insulin-like effects of in vitro incubation of benzylamine and vanadate, the chronic administration of these compounds in diabetic rats was tested. To this end, streptozotocin-induced diabetic rats were implanted subcutaneously with osmotic minipumps releasing benzylamine (84 µmol/kg/day) or were sham-operated. […] A group of animals was also subjected to daily i.p. injection of vanadate (50 µmol/kg body wt) for two weeks.
In other studies, rats were daily injected intraperitoneally with 25 µmol/kg vanadate for the first week and with 50 µmol/kg for the second week. […] However, the combination of benzylamine and vanadate reduced hyperglycemia in diabetic rats during the second week of treatment (FIG. 7).
The chronic treatment with benzylamine and vanadate caused a substantial decrease in food and water consumption which returned to normal levels and an increase in the weight of epididymal adipose tissue. All these variations occurred in the absence of changes in body weight. The effects on adiposity or food and water intake were not detected when benzylamine or vanadate was administered alone. Furthermore the normalisation of glycemia caused by chronic treatment with both benzylamine and vanadate takes place in the absence of changes in plasma insulin concentrations.

[3] = system: isolated rat adipocytes; assay: Hexose transport ([3H]-2-deoxyglucose uptake) in isolated rat adipocytes; type: cell-based; set-up: 2-deoxyglucose uptake (stimulatory effect): dose or concentration left out as unconfirmed; settings: for 2-deoxyglucose uptake (stimulatory effect): benzylamine or orthovanadate alone, 45 min incubation, ten-minute uptake; for glucose transport: 45 min preincubation of fat cells with increasing concentrations, 5-min 2-DG uptake
Procedure: Adipocyte isolation. Male Wistar rats (200-260 g) were sacrificed in a fed state, and the internal epididymal adipose tissues was dissected out and digested in Krebs-Ringer buffer as described (cf. C. Carpene et al., Biochem. PharmacoL 1990, voL 40, pp. 437-445). Adipose cells isolated is such a way were used in subsequent studies.
Hexose transport After a preincubation period of 45 min at 37 °C in vials containing 400 µl of cell suspension in KRBH with the tested products, [^3H]-2-deoxyglucose was added at a final concentration of 0.1 mM (approx. 1,300,000 d.p.m./vial). The assays were further incubated for 5 or 10 min and then stopped with 100 µl of cytochalasin B. Aliquots (200 µl) of the cell suspension were centrifuged in microtubes as described (cf. J.M. Olefsky, Biochem. J. 1978, voL 172, pp. 137-145). After centrifugation, the fat cells (upper part of the tubes) were placed in scintillation vials and the incorporated radioactivity was counted.

[4] = type: physicochemical
Procedure: as §1

[5] = vanadate i.p. daily 25 µmol/kg first week and 50 µmol/kg second week, benzylamine 84 µmol/kg

NCc1ccccc1 [benzylamine]
abundance of GLUT4 in plasma membranes [1]: did not alter | food and water consumption [2]: not detected | weight of epididymal adipose tissue (adiposity) [2]: not detected | glycemia [2, 5]: remained hyperglycemic | 2-deoxyglucose uptake (stimulatory effect) [3]: no stimulatory effect | stability in implanted osmotic minipumps [4]: stable for two weeks

OO [hydrogen peroxide]
glucose transport [3]: dose-dependently stimulated | activation at 1000 µM ([3]; Rattus norvegicus, Adipocyte, 0.75 h, 1 mM H2O2, preincubation 45 min, n = 23, read-out: effect relative to the maximal insulin effect): 46% | fold induction at 1000 µM ([3]; Rattus norvegicus, Adipocyte, 0.75 h, 1 mM H2O2, preincubation 45 min, n = 23, read-out: factor by which basal transport is multiplied): 5 ± 0.8

[Na+].[Na+].[Na+].[O]=[V]([O-])([O-])[O-] [orthovanadate, sodium orthovanadate Na3VO4]
abundance of GLUT4 in plasma membranes [1]: did not alter | amount of GLUT4 protein in the PM ([1]; Western blot, orthovanadate 0.1 mM, n = 3): 103 ± 8% | food and water consumption [2]: not detected | weight of epididymal adipose tissue (adiposity) [2]: not detected | glycemia ([2]; vanadate 50 µmol/kg body wt daily i.p. for two weeks, benzylamine 84 µmol/kg/day by osmotic minipumps): moderate reduction | glycemia [2, 5]: remained hyperglycemic | stimulation of glucose transport relative to that of 100 nM insulin (maximal insulin effect) ([3]; 1 mM tyramine, 0.1 mM orthovanadate, n = 40): 5 ± 1% | 2-deoxyglucose uptake (stimulatory effect) [3]: did not stimulate | basal or insulin-stimulated glucose transport ([3]; orthovanadate alone 0.1 mM): did not affect

CNC[C@H](O)c1cccc(O)c1 [phenylephrine]
glucose transport [3]: not activated

NNC(N)=O [semicarbazide]
inhibition at 100 µM ([3]; Rattus norvegicus, Adipocyte, semicarbazide 0.1 mM, read-out: inhibition of the glucose transport promoted by 1 mM tyramine plus orthovanadate): 59 ± 7% | benzylamine-orthovanadate-stimulated 2-deoxyglucose uptake ([3]; semicarbazide 1 mM): abolished | glucose transport stimulated by 1 mM hydrogen peroxide plus 0.1 mM orthovanadate ([3]; semicarbazide 1 mM): unaffected

NCCc1c[nH]c2ccc(O)cc12 [serotonin]
glucose transport [3]: not activated

NCCc1ccc(O)cc1 [tyramine]
glucose transport [3]: not activated | synergism with low, ineffective dose of hydrogen peroxide on glucose transport ([3]; hydrogen peroxide 0.01 mM, not shown): no synergism | synergism with low, ineffective dose of insulin on glucose transport ([3]; insulin 10 pM, not shown): no synergism
